From US20190351012A1, “TARGETING OF INTERFERON-STIMULATED GENE EXPRESSION TO TREAT INTERFERONOPATHIES” (New York University, priority 2018, published 2019)

Tested on: CDK9 at ISG56 and ISG15 promoters
Assay: ChIP for CDK9 (P-TEFb) at ISG promoters in 2fTGH cells
Type: cell-based, human
Settings: IFN-α 60 min in presence of TSA
Method: FIG. 4. HDAC activity is required for P-TEFb recruitment. (A) HeLa cells were either left untreated or treated with IFN-α for 1 h in presence or absence of 100 or 200 nM of the CDK9 inhibitor flavopiridol (Flay). Using primers spanning intron-exon junctions, nuclear pre-mRNA abundance for ISG54 and RPS11 were quantified using real-time RT-PCR and normalized to GAPDH mRNA. (B) 2fTGH cells were either left untreated or treated with IFN-α in the absence or presence of TSA for 60 min. ChIP assays were performed with antibodies against CDK9 and recovered ISG56 and ISG15 promoter sequences were quantified by real-time PCR relative to input and represented as percent of the input signal. (C) BT474 cells were either left untreated or treated with IFN-α in the absence or presence of TSA after exposure to Geldanamycin (Gelda) for 24 h, as indicated. mRNA for ISG56, OAS2 and c-Myc were quantified by real-time RT-PCR and normalized to GAPDH. […] ISG56 mRNA was quantified using real-time RT-PCR and normalized to GAPDH mRNA abundance (left panel). […] ISG56, Spt5 mRNA, and ISG54 pre-mRNA were quantified using real-time RT-PCR and normalized to GAPDH mRNA abundance.
To directly probe the involvement of P-TEFb in ISG expression, we assessed its recruitment to chromatin in response to IFN treatment. […]

CC(/C=C/C(=O)NO)=C\[C@@H](C)C(=O)c1ccc(N(C)C)cc1 [TSA, Trichostatin A]
chromatin-bound CDK9 at ISG56 and ISG15 promoters: not observed
